According to patent publication US20140051875A1, “CRYSTALLINE FORM OF MAXACALCITOL” (FORMOSA LABORATORIES INC., priority 2012, published 2014):
Read-outs that look alike come from different tables or passages of the source.

Tests used:
[1] = Storage stability of maxacalcitol hydrate under an inert gas atmosphere; format: physicochemical; details: under an inert gas atmosphere at 25° C.
Description: In a preferred embodiment, the maxacalcitol hydrate is stored in an amber vial.

[2] = cited from earlier work

Structure (SMILES) | stability to storage: no degradation for (time) [1] | stability: decomposed after storage (time) ([2]; amber vial under inert gas environment at 25° C.) [weeks] | stability: stable for (storage time) ([2]; amber vial under inert gas environment at −20° C.) [months] | stability: stable for (storage time) ([2]; amber vial under inert gas environment at −80° C.) [months] | decomposition on storage ([2]; at 25° C., according to the JP interview form)
C=C1/C(=C\C=C2/CCC[C@]3(C)[C@@H]([C@H](C)OCCC(C)(C)O)CC[C@@H]23)C[C@@H](O)C[C@@H]1O [maxacalcitol hydrate] | at least 32 days | – | – | – | –
C=C1/C(=C\C=C2/CCC[C@]3(C)[C@@H]([C@H](C)OCCC(C)(C)O)CC[C@@H]23)C[C@@H](O)C[C@@H]1O [maxacalcitol, (+)-(5Z,7E,20S)-20-(3-Hydroxy-3-methylbutoxy)-9,10-secopregna-5,7,10(19)-triene-1α,3β-diol] | – | 4 | 6 | 36 | considerable degree of decomposition
